Assay results as given in PMC9133015 (Nature Communications, 2022).
Values joined by “and” are separate entries in the source; they are usually repeats but may differ in a detail not shown here. Equal values may be shown once. Read-outs that look alike come from different tables or passages of the source.

Tests used:
Experiment in all cases: Kinase inhibitor specificity profiling (Reaction Biology Corporation)
Type in all cases: biochemical
Parameters in all cases: % Enzyme Activity (relative to DMSO controls): concentration or dose not given beside the values
[1] = target: T1, panel of 370 protein kinases (Homo sapiens, UniProt O96017); settings: 2 h, kinase CHK2; read-out: % Enzyme Activity (relative to DMSO controls)
T1 construct: purchased Reaction Biology Corporation (assay service)

[2] = target: T2, panel of 370 protein kinases (Homo sapiens, UniProt Q9Y243); settings: 2 h, kinase AKT3; read-out: % Enzyme Activity (relative to DMSO controls)
T2 construct: purchased Reaction Biology Corporation (assay service)

[3] = target: T3, panel of 370 protein kinases (Homo sapiens, UniProt P05129); settings: 2 h, kinase PKCg; read-out: % Enzyme Activity (relative to DMSO controls)
T3 construct: purchased Reaction Biology Corporation (assay service)

[4] = target: T4, panel of 370 protein kinases (Homo sapiens, UniProt O95747); settings: 2 h, kinase OSR1/OXSR1; read-out: % Enzyme Activity (relative to DMSO controls)
T4 construct: purchased Reaction Biology Corporation (assay service)

[5] = target: T5, panel of 370 protein kinases (Homo sapiens, UniProt Q9UK32); settings: kinase RSK4
T5 construct: purchased Reaction Biology Corporation (assay service)

[6] = target: T6, panel of 370 protein kinases (Homo sapiens, UniProt Q96PN8); settings: 2 h, kinase TSSK3/STK22C; read-out: % Enzyme Activity (relative to DMSO controls)
T6 construct: purchased Reaction Biology Corporation (assay service)

[7] = target: T7, panel of 370 protein kinases (Homo sapiens, UniProt P16591); settings: 2 h, kinase FER; read-out: % Enzyme Activity (relative to DMSO controls)
T7 construct: purchased Reaction Biology Corporation (assay service)

[8] = target: T8, panel of 370 protein kinases (Homo sapiens, UniProt Q16832); settings: 2 h, kinase DDR2; read-out: % Enzyme Activity (relative to DMSO controls)
T8 construct: purchased Reaction Biology Corporation (assay service)

[9] = target: T9, panel of 370 protein kinases (Homo sapiens, UniProt P06493); settings: 2 h, read-out: % Enzyme Activity (relative to DMSO controls)
T9 construct: purchased Reaction Biology Corporation (assay service)

[10] = target: T10, panel of 370 protein kinases (Homo sapiens, UniProt P49336); settings: kinase CDK8/cyclin C
T10 construct: purchased Reaction Biology Corporation (assay service)

[11] = target: T11, panel of 370 protein kinases (Homo sapiens, UniProt P42684); settings: 2 h, kinase ABL2/ARG; read-out: % Enzyme Activity (relative to DMSO controls)
T11 construct: purchased Reaction Biology Corporation (assay service)

[12] = target: T12, panel of 370 protein kinases (Homo sapiens, UniProt Q9H3Y6); settings: 2 h, kinase SRMS; read-out: % Enzyme Activity (relative to DMSO controls)
T12 construct: purchased Reaction Biology Corporation (assay service)

[13] = target: T13, panel of 370 protein kinases (Homo sapiens, UniProt Q9BUB5); settings: 2 h, kinase MNK1; read-out: % Enzyme Activity (relative to DMSO controls)
T13 construct: purchased Reaction Biology Corporation (assay service)

[14] = target: T14, panel of 370 protein kinases (Homo sapiens, UniProt Q00537); settings: 2 h, kinase CDK17/cyclin Y (PCTK2); read-out: % Enzyme Activity (relative to DMSO controls)
T14 construct: purchased Reaction Biology Corporation (assay service)

[15] = target: T15, panel of 370 protein kinases (Homo sapiens, UniProt Q9UF33); settings: 2 h, kinase EPHA6; read-out: % Enzyme Activity (relative to DMSO controls)
T15 construct: purchased Reaction Biology Corporation (assay service)

[16] = target: T16, panel of 370 protein kinases (Homo sapiens, UniProt P21709); settings: 2 h, kinase EPHA1; read-out: % Enzyme Activity (relative to DMSO controls)
T16 construct: purchased Reaction Biology Corporation (assay service)

[17] = target: T17, panel of 370 protein kinases (Homo sapiens, UniProt Q04912); settings: 2 h, kinase RON/MST1R; read-out: % Enzyme Activity (relative to DMSO controls)
T17 construct: purchased Reaction Biology Corporation (assay service)

[18] = target: T18, panel of 370 protein kinases (Homo sapiens, UniProt Q9BYP7); settings: 2 h, kinase WNK3; read-out: % Enzyme Activity (relative to DMSO controls)
T18 construct: purchased Reaction Biology Corporation (assay service)

[19] = target: T19, panel of 370 protein kinases (Homo sapiens, UniProt P20794); settings: 2 h, kinase MAK; read-out: % Enzyme Activity (relative to DMSO controls)
T19 construct: purchased Reaction Biology Corporation (assay service)

[20] = target: T20, panel of 370 protein kinases (Homo sapiens, UniProt Q5S007); settings: 2 h, kinase LRRK2; read-out: % Enzyme Activity (relative to DMSO controls)
T20 construct: purchased Reaction Biology Corporation (assay service)

[21] = target: T21, panel of 370 protein kinases (Homo sapiens, UniProt O60285); settings: kinase ARK5/NUAK1
T21 construct: purchased Reaction Biology Corporation (assay service)
T21 sequence (O60285 whole entry): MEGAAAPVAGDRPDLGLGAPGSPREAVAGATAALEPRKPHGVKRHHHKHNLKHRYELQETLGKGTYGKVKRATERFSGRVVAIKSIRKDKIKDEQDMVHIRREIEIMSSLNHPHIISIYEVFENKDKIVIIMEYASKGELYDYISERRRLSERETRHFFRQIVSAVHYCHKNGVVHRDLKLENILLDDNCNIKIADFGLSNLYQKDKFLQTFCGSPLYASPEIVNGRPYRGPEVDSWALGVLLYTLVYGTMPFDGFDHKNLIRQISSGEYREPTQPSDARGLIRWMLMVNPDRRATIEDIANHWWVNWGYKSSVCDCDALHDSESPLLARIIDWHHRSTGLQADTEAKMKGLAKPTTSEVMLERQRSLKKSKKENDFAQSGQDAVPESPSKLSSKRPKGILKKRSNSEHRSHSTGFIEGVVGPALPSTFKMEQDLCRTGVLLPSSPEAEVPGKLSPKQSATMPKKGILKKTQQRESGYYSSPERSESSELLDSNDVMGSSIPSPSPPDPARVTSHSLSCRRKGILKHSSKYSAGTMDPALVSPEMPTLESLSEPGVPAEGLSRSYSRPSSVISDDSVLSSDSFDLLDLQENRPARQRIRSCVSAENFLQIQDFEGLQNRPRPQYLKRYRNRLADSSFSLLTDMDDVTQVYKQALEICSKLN

T9 sequence (P06493 whole entry): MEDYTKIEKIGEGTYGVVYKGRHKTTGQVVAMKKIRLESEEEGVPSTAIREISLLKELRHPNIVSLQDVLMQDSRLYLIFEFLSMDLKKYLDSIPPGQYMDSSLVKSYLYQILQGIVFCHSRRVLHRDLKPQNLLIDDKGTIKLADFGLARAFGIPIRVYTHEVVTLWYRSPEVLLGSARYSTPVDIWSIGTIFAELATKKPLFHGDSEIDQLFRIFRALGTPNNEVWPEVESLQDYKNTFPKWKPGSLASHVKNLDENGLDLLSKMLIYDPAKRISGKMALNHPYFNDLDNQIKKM
T5 sequence (Q9UK32 whole entry): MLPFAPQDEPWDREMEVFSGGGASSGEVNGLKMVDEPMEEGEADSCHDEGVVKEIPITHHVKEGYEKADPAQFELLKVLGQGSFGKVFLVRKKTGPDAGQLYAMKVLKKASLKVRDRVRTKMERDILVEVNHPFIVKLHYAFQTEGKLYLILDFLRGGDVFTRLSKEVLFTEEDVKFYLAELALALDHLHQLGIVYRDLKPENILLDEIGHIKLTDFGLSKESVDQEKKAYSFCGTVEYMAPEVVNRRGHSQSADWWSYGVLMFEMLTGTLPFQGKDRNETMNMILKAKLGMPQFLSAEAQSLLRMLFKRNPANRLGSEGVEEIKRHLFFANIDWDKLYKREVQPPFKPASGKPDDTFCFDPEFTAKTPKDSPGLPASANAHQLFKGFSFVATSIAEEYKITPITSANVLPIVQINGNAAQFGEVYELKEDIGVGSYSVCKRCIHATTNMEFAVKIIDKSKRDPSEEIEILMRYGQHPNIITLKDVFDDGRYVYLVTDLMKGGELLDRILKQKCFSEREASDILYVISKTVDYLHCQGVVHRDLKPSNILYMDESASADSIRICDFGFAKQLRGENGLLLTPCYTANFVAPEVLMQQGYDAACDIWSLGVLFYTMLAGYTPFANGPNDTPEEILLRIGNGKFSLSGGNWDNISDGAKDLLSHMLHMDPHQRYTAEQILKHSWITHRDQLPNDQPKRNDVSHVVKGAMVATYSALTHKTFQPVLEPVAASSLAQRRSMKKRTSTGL
T10 sequence (P49336 whole entry): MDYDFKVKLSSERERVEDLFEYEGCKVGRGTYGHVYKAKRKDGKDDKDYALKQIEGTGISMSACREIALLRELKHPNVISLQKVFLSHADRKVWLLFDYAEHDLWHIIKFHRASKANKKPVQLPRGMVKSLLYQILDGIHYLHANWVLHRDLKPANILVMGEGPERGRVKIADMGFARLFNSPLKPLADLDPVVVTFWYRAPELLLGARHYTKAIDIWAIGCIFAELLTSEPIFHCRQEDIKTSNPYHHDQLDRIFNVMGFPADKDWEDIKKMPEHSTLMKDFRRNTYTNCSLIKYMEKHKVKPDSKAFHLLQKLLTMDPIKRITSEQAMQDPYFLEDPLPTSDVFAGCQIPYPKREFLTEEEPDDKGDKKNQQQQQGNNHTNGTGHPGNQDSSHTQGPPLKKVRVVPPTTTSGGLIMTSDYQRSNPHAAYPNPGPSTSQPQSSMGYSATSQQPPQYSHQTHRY
T6 sequence (Q96PN8 whole entry): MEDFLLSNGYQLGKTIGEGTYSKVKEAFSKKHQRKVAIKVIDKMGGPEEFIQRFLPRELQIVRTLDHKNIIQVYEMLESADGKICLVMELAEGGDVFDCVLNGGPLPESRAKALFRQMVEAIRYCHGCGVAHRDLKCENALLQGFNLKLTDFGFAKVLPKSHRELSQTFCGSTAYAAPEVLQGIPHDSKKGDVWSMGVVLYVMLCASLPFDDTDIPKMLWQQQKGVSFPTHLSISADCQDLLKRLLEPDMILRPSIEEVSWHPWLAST
T15 sequence (Q9UF33 23-1036): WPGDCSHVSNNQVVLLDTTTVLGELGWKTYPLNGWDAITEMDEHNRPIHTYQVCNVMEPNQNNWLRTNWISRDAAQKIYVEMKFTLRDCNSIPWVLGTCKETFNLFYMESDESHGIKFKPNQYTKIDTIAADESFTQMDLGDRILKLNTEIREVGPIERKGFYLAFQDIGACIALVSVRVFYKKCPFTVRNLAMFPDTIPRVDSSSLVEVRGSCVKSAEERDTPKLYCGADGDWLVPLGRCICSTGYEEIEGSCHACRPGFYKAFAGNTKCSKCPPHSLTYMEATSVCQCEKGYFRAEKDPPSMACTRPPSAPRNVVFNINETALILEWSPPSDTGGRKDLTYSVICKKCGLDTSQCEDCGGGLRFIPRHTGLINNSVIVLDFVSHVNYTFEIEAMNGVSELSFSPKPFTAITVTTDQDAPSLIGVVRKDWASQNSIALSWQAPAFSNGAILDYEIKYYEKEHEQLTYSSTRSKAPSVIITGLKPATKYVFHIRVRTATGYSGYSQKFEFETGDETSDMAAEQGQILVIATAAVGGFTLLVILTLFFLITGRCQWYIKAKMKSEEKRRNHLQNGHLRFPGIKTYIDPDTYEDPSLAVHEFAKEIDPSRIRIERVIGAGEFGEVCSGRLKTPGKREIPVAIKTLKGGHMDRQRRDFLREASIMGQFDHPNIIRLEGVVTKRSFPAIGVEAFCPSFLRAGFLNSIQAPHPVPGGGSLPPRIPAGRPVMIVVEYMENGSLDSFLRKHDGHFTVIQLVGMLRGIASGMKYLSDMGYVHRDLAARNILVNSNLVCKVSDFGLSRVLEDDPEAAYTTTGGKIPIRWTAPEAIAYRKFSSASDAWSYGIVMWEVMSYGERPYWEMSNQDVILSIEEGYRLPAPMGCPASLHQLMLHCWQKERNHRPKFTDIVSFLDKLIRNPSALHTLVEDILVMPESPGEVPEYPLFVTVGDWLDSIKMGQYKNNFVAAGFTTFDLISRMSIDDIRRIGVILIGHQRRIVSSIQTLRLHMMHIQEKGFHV
T2 sequence (Q9Y243 whole entry): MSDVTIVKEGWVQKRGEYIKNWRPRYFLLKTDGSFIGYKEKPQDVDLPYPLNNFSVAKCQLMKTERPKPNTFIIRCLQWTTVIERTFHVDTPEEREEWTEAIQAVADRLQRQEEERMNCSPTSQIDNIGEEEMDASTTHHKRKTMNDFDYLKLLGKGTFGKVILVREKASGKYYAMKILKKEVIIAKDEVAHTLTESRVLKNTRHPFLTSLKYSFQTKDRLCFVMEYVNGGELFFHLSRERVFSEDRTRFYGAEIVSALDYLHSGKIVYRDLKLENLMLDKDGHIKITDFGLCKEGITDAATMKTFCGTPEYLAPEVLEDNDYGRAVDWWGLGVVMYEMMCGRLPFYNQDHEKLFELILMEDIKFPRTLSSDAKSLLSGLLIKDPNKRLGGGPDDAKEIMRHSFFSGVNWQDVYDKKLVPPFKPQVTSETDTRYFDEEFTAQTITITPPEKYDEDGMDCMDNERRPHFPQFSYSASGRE

## CCN1CCN(C(=O)c2ccc(Nc3ncc(F)c(-c4ccc5nc(N(C)C)sc5c4)n3)nc2)CC1 [YK-2-69]
[1]
  remaining activity at 1 µM: 97.6%
[2]
  remaining activity at 1 µM: 88.2%
[3]
  remaining activity at 1 µM: 90.9%
[4]
  remaining activity at 1 µM: 89.2%
[5]
  % Enzyme Activity (relative to DMSO controls): 87.21% and 86.27%
[6]
  remaining activity at 1 µM: 94.6%
[7]
  remaining activity at 1 µM: 106%
[8]
  remaining activity at 1 µM: 103%
[9]; kinase CDK1/cyclin A
  remaining activity at 1 µM: 116%
[9]; kinase CDK1/cyclin B
  remaining activity at 1 µM: 119%
[9]; kinase CDK1/cyclin E
  remaining activity at 1 µM: 103%
[10]
  % Enzyme Activity (relative to DMSO controls): 57.28% and 56.07%
[11]
  remaining activity at 1 µM: 91.2%
[12]
  remaining activity at 1 µM: 80.7%
[13]
  remaining activity at 1 µM: 89.6%
[14]
  remaining activity at 1 µM: 99.2%
[15]
  remaining activity at 1 µM: 104%
[16]
  remaining activity at 1 µM: 109%
[17]
  remaining activity at 1 µM: 89.5%
[18]
  remaining activity at 1 µM: 98.9%
[19]
  remaining activity at 1 µM: 71.7%
[20]
  remaining activity at 1 µM: 72%
[21]
  % Enzyme Activity (relative to DMSO controls): 87.08% and 86.46%
